Test results from US20240210412A1, “SULFONYL-TRIAZOLE COMPOUNDS USEFUL AS LIGANDS AND INHIBITORS OF PROSTAGLANDIN REDUCTASE 2” (University of Virginia Patent Foundation, priority 2021, published 2024).

What was measured:
Assay in all cases: SILAC LC-MS ABPP
Format in all cases: cell-based
Conditions in all cases: 25 μM 2 h, live DM93 cells
[1] = molecular target: T1, Q9H223 (Homo sapiens, UniProt Q9H223)
T1 construct: endogenous in cells; host or cells: DM93 cells (SILAC), treated live; soluble proteome analysed
Summary of the method: (§1)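 DM93 SILAC cells, ligand 25 μM vs DMSO, 2 h; HHS-475 100 μM, 2 h; CuAAC desthiobiotin tag; 1:1 pool; trypsin; avidin enrichment; LC-MS/MS site quantification.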

[2] = molecular target: T2, Q6NZY4 (Homo sapiens, UniProt Q6NZY4)
T2 construct: endogenous in cells; host or cells: DM93 cells (SILAC), live-cell treatment
Summary of the method: as §1

[3] = molecular target: T3, Q9BWT3 (Homo sapiens, UniProt Q9BWT3)
T3 construct: endogenous in cells; host or cells: DM93 cells (SILAC), treated live; soluble proteome analysed
Summary of the method: as §1

[4] = molecular target: T4, Q16836 (Homo sapiens, UniProt Q16836)
T4 construct: performing SuTEx compound screening directly in cells; endogenous in cells; host or cells: DM93 cells (SILAC), soluble fraction
Summary of the method: as §1

[5] = molecular target: T5, Q8IWS0 (Homo sapiens, UniProt Q8IWS0)
T5 construct: endogenous in cells; host or cells: DM93 cells (SILAC), live-cell treatment
Summary of the method: as §1

[6] = molecular target: T6, Q86XP3 (Homo sapiens, UniProt Q86XP3)
T6 construct: endogenous in cells; host or cells: DM93 cells (SILAC), live-cell treatment
Summary of the method: as §1

[7] = molecular target: T7, O60763 (Homo sapiens, UniProt O60763)
T7 construct: endogenous in cells; host or cells: DM93
Summary of the method: as §1

[8] = molecular target: T8, P63241 (Homo sapiens, UniProt P63241)
T8 construct: performing SuTEx compound screening directly in cells; endogenous in cells; host or cells: DM93 cells (SILAC)
Summary of the method: as §1

[9] = molecular target: T9, Q9BUT1 (Homo sapiens, UniProt Q9BUT1)
T9 construct: endogenous in cells; host or cells: DM93 cells (SILAC), treated live; soluble proteome analysed
Summary of the method: as §1

[10] = molecular target: T10, P25789 (Homo sapiens, UniProt P25789)
T10 construct: endogenous in cells; host or cells: DM93 (SILAC)
Summary of the method: as §1

[11] = molecular target: T11, Q92974 (Homo sapiens, UniProt Q92974)
T11 construct: endogenous in cells; host or cells: DM93 cells (SILAC), live-cell treatment
Summary of the method: as §1

[12] = molecular target: T12, P06400 (Homo sapiens, UniProt P06400)
T12 construct: endogenous in cells; host or cells: DM93 cells (SILAC)
Summary of the method: as §1

[13] = molecular target: T13, P31948 (Homo sapiens, UniProt P31948)
T13 construct: endogenous in cells; host or cells: DM93 (SILAC)
Summary of the method: as §1

[14] = molecular target: T14, P49585 (Homo sapiens, UniProt P49585)
T14 construct: endogenous in cells; host or cells: DM93 cells (SILAC)
Summary of the method: as §1

[15] = molecular target: T15, Q14694 (Homo sapiens, UniProt Q14694)
T15 construct: performing SuTEx compound screening directly in cells; endogenous in cells; host or cells: DM93 cells (SILAC), soluble fraction
Summary of the method: as §1

[16] = molecular target: T16, O75131 (Homo sapiens, UniProt O75131)
T16 construct: endogenous in cells; host or cells: DM93
Summary of the method: as §1

[17] = molecular target: T17, O95453 (Homo sapiens, UniProt O95453)
T17 construct: endogenous in cells; host or cells: DM93 cells (SILAC)
Summary of the method: as §1

[18] = molecular target: T18, P18669 (Homo sapiens, UniProt P18669)
T18 construct: endogenous in cells; host or cells: DM93 (SILAC)
Summary of the method: as §1

T18 sequence (P18669 whole entry): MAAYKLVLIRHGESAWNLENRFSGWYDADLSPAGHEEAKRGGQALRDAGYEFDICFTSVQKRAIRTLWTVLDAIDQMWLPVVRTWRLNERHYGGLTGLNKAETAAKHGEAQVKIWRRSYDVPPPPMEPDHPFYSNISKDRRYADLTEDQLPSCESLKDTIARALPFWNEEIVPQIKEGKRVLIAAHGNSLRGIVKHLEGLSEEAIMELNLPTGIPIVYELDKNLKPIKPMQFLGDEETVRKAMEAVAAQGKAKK
T3 sequence (Q9BWT3 whole entry): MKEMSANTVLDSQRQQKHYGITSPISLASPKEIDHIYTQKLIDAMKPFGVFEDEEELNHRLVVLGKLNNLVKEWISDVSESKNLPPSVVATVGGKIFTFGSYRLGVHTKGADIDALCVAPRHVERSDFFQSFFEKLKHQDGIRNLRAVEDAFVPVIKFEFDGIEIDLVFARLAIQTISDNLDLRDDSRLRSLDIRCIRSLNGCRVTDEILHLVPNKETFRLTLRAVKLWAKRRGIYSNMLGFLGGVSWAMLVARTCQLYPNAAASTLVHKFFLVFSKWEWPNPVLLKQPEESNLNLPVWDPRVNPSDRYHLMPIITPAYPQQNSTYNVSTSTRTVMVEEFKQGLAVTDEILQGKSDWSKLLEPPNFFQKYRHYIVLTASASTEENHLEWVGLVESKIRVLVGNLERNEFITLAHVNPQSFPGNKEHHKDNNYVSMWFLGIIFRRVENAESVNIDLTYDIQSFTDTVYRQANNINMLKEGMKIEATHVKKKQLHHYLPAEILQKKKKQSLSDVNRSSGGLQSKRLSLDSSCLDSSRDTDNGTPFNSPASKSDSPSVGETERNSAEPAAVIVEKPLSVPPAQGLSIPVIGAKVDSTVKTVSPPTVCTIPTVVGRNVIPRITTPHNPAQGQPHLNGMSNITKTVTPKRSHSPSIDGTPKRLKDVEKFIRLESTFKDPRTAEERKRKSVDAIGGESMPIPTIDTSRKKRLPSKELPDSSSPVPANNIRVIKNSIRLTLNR
T5 sequence (Q8IWS0 whole entry): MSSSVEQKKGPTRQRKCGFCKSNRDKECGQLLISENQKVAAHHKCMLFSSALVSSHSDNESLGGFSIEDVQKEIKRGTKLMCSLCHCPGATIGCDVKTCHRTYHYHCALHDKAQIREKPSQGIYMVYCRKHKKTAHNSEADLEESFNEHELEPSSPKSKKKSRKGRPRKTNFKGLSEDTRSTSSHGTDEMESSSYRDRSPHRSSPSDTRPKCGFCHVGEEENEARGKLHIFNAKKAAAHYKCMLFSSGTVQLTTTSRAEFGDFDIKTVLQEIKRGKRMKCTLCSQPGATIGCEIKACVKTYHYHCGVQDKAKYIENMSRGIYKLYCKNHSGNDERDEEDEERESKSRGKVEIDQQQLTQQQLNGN
T4 sequence (Q16836 13-314): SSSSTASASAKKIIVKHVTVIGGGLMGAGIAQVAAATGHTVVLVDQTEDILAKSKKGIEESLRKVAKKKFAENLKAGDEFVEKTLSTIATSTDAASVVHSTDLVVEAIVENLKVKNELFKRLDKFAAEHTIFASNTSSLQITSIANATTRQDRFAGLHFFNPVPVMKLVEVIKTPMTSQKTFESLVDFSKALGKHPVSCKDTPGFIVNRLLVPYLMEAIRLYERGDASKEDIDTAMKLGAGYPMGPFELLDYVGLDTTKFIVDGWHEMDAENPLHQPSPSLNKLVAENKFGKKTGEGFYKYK
T14 sequence (P49585 whole entry): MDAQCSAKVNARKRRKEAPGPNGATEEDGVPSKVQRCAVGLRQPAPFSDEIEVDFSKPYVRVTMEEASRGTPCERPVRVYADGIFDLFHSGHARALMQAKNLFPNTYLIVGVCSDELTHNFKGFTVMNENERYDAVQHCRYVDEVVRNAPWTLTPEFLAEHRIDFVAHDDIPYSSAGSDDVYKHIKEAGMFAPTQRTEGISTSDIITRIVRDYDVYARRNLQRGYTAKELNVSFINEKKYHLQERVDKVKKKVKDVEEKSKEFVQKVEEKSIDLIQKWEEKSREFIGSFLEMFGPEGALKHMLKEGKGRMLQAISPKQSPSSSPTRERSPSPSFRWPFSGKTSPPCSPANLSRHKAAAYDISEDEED
T16 sequence (O75131 whole entry): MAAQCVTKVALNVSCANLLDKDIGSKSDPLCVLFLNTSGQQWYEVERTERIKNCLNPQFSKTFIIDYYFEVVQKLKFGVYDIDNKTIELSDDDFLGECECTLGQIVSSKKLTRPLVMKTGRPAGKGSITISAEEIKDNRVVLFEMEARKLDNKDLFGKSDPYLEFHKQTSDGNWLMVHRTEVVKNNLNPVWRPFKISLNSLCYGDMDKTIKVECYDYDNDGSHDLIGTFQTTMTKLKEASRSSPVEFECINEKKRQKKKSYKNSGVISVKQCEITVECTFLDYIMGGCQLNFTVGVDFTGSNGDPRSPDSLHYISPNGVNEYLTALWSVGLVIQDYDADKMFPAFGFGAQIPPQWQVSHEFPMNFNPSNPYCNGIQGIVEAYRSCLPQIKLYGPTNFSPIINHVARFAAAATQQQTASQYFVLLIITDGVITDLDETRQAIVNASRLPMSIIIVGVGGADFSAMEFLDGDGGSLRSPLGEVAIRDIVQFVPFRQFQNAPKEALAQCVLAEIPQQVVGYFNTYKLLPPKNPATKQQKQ
T7 sequence (O60763 whole entry): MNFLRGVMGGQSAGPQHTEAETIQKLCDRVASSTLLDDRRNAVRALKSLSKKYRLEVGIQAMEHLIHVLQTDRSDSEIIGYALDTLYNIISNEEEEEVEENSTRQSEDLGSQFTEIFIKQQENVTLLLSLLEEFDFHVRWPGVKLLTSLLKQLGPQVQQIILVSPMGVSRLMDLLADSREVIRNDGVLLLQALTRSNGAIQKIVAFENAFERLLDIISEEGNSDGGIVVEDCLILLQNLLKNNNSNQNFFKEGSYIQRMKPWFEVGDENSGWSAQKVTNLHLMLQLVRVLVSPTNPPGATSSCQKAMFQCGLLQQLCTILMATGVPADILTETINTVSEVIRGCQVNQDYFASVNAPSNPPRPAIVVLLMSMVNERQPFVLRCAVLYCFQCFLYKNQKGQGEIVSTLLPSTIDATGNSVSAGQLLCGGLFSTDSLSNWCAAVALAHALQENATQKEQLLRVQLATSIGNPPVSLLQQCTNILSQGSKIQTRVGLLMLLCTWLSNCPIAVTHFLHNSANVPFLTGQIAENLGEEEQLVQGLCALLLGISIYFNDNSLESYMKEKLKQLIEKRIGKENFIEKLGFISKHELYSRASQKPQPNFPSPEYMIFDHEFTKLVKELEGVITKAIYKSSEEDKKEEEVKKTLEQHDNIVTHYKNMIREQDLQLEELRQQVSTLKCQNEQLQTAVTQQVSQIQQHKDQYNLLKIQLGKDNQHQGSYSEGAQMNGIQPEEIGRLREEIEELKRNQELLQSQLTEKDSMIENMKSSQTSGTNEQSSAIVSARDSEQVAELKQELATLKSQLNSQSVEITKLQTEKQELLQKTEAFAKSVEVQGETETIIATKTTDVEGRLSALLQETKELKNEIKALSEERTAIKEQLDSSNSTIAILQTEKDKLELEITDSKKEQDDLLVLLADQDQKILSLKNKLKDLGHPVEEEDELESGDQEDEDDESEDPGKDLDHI
T12 sequence (P06400 whole entry): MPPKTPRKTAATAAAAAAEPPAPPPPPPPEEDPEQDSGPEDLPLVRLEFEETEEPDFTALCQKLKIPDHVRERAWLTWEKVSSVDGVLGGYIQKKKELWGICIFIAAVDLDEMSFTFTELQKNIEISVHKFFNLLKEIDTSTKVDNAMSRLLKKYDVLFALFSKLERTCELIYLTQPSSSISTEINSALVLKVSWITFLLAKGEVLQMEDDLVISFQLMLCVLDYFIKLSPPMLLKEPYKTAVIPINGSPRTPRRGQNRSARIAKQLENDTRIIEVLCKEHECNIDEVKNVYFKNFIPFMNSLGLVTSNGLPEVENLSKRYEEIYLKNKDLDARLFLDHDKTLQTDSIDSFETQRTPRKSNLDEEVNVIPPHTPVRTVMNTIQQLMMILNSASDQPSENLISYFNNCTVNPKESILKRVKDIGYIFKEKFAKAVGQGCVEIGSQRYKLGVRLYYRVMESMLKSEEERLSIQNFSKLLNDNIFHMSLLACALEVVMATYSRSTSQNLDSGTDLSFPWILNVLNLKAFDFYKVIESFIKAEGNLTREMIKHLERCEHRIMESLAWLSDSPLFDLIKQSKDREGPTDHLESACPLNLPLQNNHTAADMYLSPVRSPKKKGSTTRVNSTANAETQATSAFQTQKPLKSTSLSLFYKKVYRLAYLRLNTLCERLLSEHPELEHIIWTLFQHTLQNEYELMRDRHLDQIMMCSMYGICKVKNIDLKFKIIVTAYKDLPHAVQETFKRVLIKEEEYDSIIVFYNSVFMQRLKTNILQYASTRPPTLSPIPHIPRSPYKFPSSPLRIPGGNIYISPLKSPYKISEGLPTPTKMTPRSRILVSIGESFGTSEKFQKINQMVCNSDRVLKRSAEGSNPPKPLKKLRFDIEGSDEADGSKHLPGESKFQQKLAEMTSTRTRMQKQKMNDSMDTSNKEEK
T13 sequence (P31948 whole entry): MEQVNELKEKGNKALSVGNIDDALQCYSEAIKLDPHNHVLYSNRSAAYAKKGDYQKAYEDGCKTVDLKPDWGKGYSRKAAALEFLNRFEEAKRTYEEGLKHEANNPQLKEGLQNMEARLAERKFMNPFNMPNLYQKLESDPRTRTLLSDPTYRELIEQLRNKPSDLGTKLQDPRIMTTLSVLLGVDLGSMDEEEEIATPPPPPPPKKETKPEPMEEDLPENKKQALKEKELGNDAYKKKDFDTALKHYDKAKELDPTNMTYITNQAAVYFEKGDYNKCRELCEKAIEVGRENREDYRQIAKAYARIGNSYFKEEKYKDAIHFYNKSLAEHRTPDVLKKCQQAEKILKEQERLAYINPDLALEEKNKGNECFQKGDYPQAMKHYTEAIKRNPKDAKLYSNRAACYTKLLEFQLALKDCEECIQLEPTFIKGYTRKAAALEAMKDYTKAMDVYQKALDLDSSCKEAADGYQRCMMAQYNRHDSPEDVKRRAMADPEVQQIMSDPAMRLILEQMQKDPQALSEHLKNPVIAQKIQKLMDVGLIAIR

O=C(c1ccc(S(=O)(=O)n2cncn2)cc1)N1CCC(c2ccccc2)CC1 [HHS-0701, (4-((1H-1,2,4-triazol-1-yl)sulfonyl)phenyl)(4-phenylpiperidin-1-yl)methanone]
liganded tyrosine site 70 [1]: HHS0701.Y (tyrosine sites that showed >80% reductions (SR >5) in probe labeling in cells treated with compounds (liganded sites)) | liganded tyrosine site 258 [2]: HHS0701.Y (tyrosine sites that showed >80% reductions (SR >5) in probe labeling in cells treated with compounds (liganded sites))

O=C(NCC1CC1)c1ccc(S(=O)(=O)n2cncn2)cc1 [HHS-0201, 4-((1H-1,2,4-triazol-1-yl)sulfonyl)-N-(cyclopropylmethyl)benzamide]
liganded tyrosine site 326 [3]: HHS0201.Y|HHS0701.Y (tyrosine sites that showed >80% reductions (SR >5) in probe labeling in cells treated with compounds (liganded sites)) | liganded tyrosine site 264 [4]: HHS0201.Y|HHS0401.Y|HHS0701.Y (tyrosine sites that showed >80% reductions (SR >5) in probe labeling in cells treated with compounds (liganded sites)) | liganded tyrosine site 303 [5]: HHS0201.Y (tyrosine sites that showed >80% reductions (SR >5) in probe labeling in cells treated with compounds (liganded sites)) | liganded tyrosine site 685 [6]: HHS0201.Y (tyrosine sites that showed >80% reductions (SR >5) in probe labeling in cells treated with compounds (liganded sites)) | liganded tyrosine site 718 [7]: HHS0201.Y (tyrosine sites that showed >80% reductions (SR >5) in probe labeling in cells treated with compounds (liganded sites))

O=C(NC1CC1)c1ccc(S(=O)(=O)n2cncn2)cc1 [HHS-0101, 4-((1H-1,2,4-triazol-1-yl)sulfonyl)-N-cyclopropylbenzamide]
liganded tyrosine site 127 [8]: HHS0101.Y|HHS0201.Y|HHS0701.Y (tyrosine sites that showed >80% reductions (SR >5) in probe labeling in cells treated with compounds (liganded sites)) | liganded tyrosine site 49 [9]: HHS0101.Y (tyrosine sites that showed >80% reductions (SR >5) in probe labeling in cells treated with compounds (liganded sites)) | liganded tyrosine site 19 [10]: HHS0101.Y (tyrosine sites that showed >80% reductions (SR >5) in probe labeling in cells treated with compounds (liganded sites)) | liganded tyrosine site 66 [10]: HHS0101.Y|HHS0201.Y|HHS0301.Y (tyrosine sites that showed >80% reductions (SR >5) in probe labeling in cells treated with compounds (liganded sites)) | liganded tyrosine site 894 [11]: HHS0101.Y|HHS0401.Y (tyrosine sites that showed >80% reductions (SR >5) in probe labeling in cells treated with compounds (liganded sites))

O=C(NC1CCCCC1)c1ccc(S(=O)(=O)n2cncn2)cc1 [HHS-0301, 4-((1H-1,2,4-triazol-1-yl)sulfonyl)-N-cyclohexylbenzamide]
liganded tyrosine site 91 [12]: HHS0301.Y|HHS0701.Y (tyrosine sites that showed >80% reductions (SR >5) in probe labeling in cells treated with compounds (liganded sites)) | liganded tyrosine site 134 [13]: HHS0301.Y (tyrosine sites that showed >80% reductions (SR >5) in probe labeling in cells treated with compounds (liganded sites)) | liganded tyrosine site 173 [14]: HHS0301.Y (tyrosine sites that showed >80% reductions (SR >5) in probe labeling in cells treated with compounds (liganded sites)) | liganded tyrosine site 359 [15]: HHS0301.Y (tyrosine sites that showed >80% reductions (SR >5) in probe labeling in cells treated with compounds (liganded sites))

O=C(NCc1ccccc1)c1ccc(S(=O)(=O)n2cncn2)cc1 [HHS-0401, 4-((1H-1,2,4-triazol-1-yl)sulfonyl)-N-benzylbenzamide]
liganded tyrosine site 203 [16]: HHS0401.Y (tyrosine sites that showed >80% reductions (SR >5) in probe labeling in cells treated with compounds (liganded sites)) | liganded tyrosine site 161 [17]: HHS0401.Y (tyrosine sites that showed >80% reductions (SR >5) in probe labeling in cells treated with compounds (liganded sites)) | liganded tyrosine site 119 [18]: HHS0401.Y (tyrosine sites that showed >80% reductions (SR >5) in probe labeling in cells treated with compounds (liganded sites))
